Test results from article PMC4526861, “Inhibition of protein kinase C by isojacareubin suppresses hepatocellular carcinoma metastasis and induces apoptosis in vitro and in vivo” (Scientific Reports, 2015).

Assays:
[1] = system: HepG2 cells; experiment: Cell proliferation assay (CCK-8), HepG2; format: cell-based, human; settings: for Inhibitory Ratio (%) HepG2: 50 μM; for IC50: Homo sapiens, HepG2, mean ± SD, at least three independent experiments
Experimental: (§1) The human HCC cell lines QGY-7703, SMMC-7721 and HepG2 and the liver cell line QSG-7701 were supplied by the Cell Resource Center, Institute of Life Sciences, Chinese Academy of Medical Science. QGY-7703, SMMC-7721 and QSG-7701 cells were cultured in 1640 medium (Gibco), and HepG2 cells were cultured in DMEM medium (Gibco) at 37 °C in moist air supplemented with 5% CO2. All media were supplemented with 10% fetal bovine serum (FBS) and 100 Units/mL of penicillin/streptomycin.
(§2) The cell viability assay was performed as previously reported using a Cell Counting Kit-8 (CCK-8; Dojindo, Kumamoto, Japan)[33][34]. The relative cell viability was presented as % inhibition and calculated using the following formula: […]

[2] = system: QGY-7703 cells; experiment: Cell proliferation assay (CCK-8), QGY-7703; format: cell-based, human; settings: for Inhibitory Ratio (%) QGY-7703: 50 μM; for IC50: Homo sapiens, QGY-7703, mean ± SD, at least three independent experiments
Experimental: as §1, §2

[3] = system: SMMC-7721 cells; experiment: Cell proliferation assay (CCK-8), SMMC-7721; format: cell-based, human; settings: Homo sapiens, SMMC-7721; mean ± SD, at least three independent experiments
Experimental: as §1, §2

[4] = system: QSG-7701 hepatocytes; experiment: Cell proliferation assay (CCK-8), QSG-7701 hepatocytes; format: cell-based, human; settings: Homo sapiens, QSG7701; nonmalignant hepatocytes; mean ± SD
Experimental: as §1, §2

[5] = system: HepG2 cells; experiment: Apoptosis assay, Annexin V-FITC/PI flow cytometry; format: cell-based, human; settings: 48 h
Experimental: To further explore the potential mechanisms of the antiproliferative effects induced by compound 7 and ISJ, Annexin V-FITC/PI double staining was performed to quantify cellular apoptosis by flow cytometry. HepG2 cells were cultured for 48 h in the absence or presence of compound 7 or ISJ at different concentrations (5 or 15 μM).
HepG2 cells were seeded in six-well plates (5 × 10^5 cells/mL) for 24 h and then treated with various amounts of the compounds or 1% DMSO (as control). After 48 h, the cells floating in the medium were collected, and the adherent cells were detached with 0.05% trypsin, washed twice with cold PBS, and centrifuged at 1000 rpm for 5 min at 4 °C. Subsequently, HepG2 cells were gently resuspended in the binding buffer. Thereafter, the cells were stained using the Annexin V-FITC/PI apoptosis detection kit (BD Biosciences, San Jose, CA, USA). After incubation at room temperature for 15 min in the dark, the apoptotic cells were immediately analyzed by flow cytometry (FACS Calibur).

[6] = system: HepG2 cells; experiment: Wound healing (migration) assay; format: cell-based, human; settings: 10 μM, 24 h
Experimental: (§3) Cell migration and invasion potencies were studied using wound healing and Matrigel invasion assays. The wound healing assay was performed by scratching the cell surface with a 10 μL pipette tip. Then, the cells were treated with compound 7 and ISJ (10 μM) and incubated for 24 h before being photographed under a microscope (DMI3000 B, Leica). Wound closure was evaluated using ImageJ software. Invasion through a Matrigel-coated filter was measured in transwell chambers (Corning Costa) as described previously, with minor modifications. Briefly, HepG2 Cells (2 × 10^5/well) were suspended in serum-free medium and added to the upper chamber of the Matrigel plate. FBS (10%) was used as the chemoattractant in the lower chamber. After incubation for 24 h, the non-invading cells were removed from the upper surface of the insert membrane with a cotton swab. The invading cells were fixed with methanol and stained with Giemsa (Sigma). Cells in five randomly selected fields were photographed, and the numbers of cells that crossed the membrane were counted.

[7] = system: HepG2 cells; experiment: Matrigel invasion assay; format: cell-based, human; settings: Homo sapiens, HepG2, 24 h, read-out: inhibition of invasiveness compared to control
Experimental: as §3

[8] = system: PKC; experiment: PKC activity assay (PepTag non-radioactive, HepG2 lysates); format: biochemical, human; settings: 3 h
Experimental: The activity of PKC in HepG2 cells was assessed 3 h after the addition of compound 7 or ISJ by measuring the phosphorylation of a PKC-specific target peptide. Compared to the basal control (in the absence of any compound), PKC activity was inhibited by compound 7 and ISJ.
Figure 3 Effects of compound 7 and ISJ on PKC activity in HepG2 cells. The proteins from lysed HepG2 cells were prepared and measured for their ability to phosphorylate a PKC-specific peptide substrate (PLSRTLSVAAK) in a non-radioactive assay. (a) Lanes 1 and 2 show the negative (water only) and positive controls (with 20 ng purified PKC). Supernatants from HepG2 cells were subjected to the PKC activity assay in the absence (basal control, lane 3) or presence (lanes 4–7) of the compounds. Compound 7 (lanes 4 and 5) and ISJ (lanes 6 and 7) were added separately at 10 and 5 μM. (b) Quantification of (a); *P < 0.05 versus the basal control. Data are shown as the mean ± SD of three independent experiments.
The PKC activity assay was carried out as previously reported, according to the instructions of the PepTag non-radioactive PKC assay kit (Promega)[60]. The bands were photographed using the Syngene GBOX-iCHEMI-XR system, and the phosphorylated bands were cut out for quantification measurement at 570 nm.

[9] = system: PKCζ; experiment: Western blot of PKC isoform expression in cytosol and membrane; format: cell-based, human; settings: HepG2, 24 h incubation
Experimental: To further determine whether compound 7 and ISJ represent potential candidates for selective PKC expression inhibitors against hepatoma, the expression of PKC isoforms in HepG2 cells was characterized by western blotting. After 24 h of incubation with GFX, GO, ISJ and compound 7 at the indicated concentrations, PKC proteins from the cytosol and membrane of HepG2 cells were evaluated. ISJ and compound 7 treatments reduced both the cytosol and cell membrane expression of PKCζ.
(§4) The total membrane and cytosolic proteins were extracted using a Membrane and Cytosol Protein Extraction Kit (Beyotime). Extracted proteins from cells or animal tissues were separated by SDS-PAGE and transferred to polyvinylidene difluoride (PVDF) membranes (Bio-Rad). The PVDF membranes were blocked with 5% nonfat milk and incubated with primary antibodies overnight, followed by incubation with a donkey anti-rabbit or anti-mouse secondary antibody (IRDye 800, LI-COR, Biosciences). The images were captured using the Odyssey Infrared Imaging System (LI-COR, Biosciences), according to the manufacturer's instructions. The intensity was quantitative with Quantity One software (Bio-Rad). To ensure equal protein loading, each membrane was stripped and reprobed with an anti-β-actin antibody. All experiments were repeated independently no less than three times.

[10] = system: HepG2 xenografts; experiment: Antitumor activity in vivo, HepG2 xenograft; design: species or system BALB/c-nu nude mice; settings: 5 mg/kg, tail vein injection every other day for two weeks
Experimental: Four-week-old male BALB/c-nu nude mice (15–20 g) were obtained from the Shanghai SLAC Laboratory Animal Co., Ltd. (Shanghai, China). The animals were maintained under specific pathogen-free conditions with food and water supplied ad libitum in the Laboratory Animal Center of the Second Military Medical University. All animal experiments were carried out in accordance with the Guide for the Care and Use of Laboratory Animals of the National Institutes of Health and were approved by the Committee on the Ethics of Animal Experiments of the Second Military Medical University, China.
(§5) HepG2 cells were harvested and resuspended in PBS. A total of 5 × 10^6 cells were subcutaneously injected into the right flank. Tumor volume was calculated using the following formula: V = (L × W^2)/2, where L is the length and W is the width of the tumor nodules measured with vernier calipers. Once the volume of the tumors reached 75–100 mm^3, the mice were randomly divided into three groups (n = 5). The mice were treated every other day for two weeks with tail vein injections of either vehicle (5% ethanol and 2.5% polyethylene glycol in saline), compound 7, or ISJ (5 mg/kg in the vehicle). Body weights were measured before each drug injection. After the 15th day, the mice were euthanized, and the tumors were isolated, weighed and photographed.

[11] = Body weight in xenograft study; format: in vivo, BALB/c-nu nude mice; settings: 5 mg/kg, tail vein, two weeks
Experimental: as §5

[12] = system: c-PARP, c-Cas3 and c-Cas9 in xenograft tumors; experiment: Histology, IHC and immunoblot of xenograft tumors; format: in vivo, BALB/c-nu nude mice; settings: 5 mg/kg
Experimental: as §4
To further confirm the antitumor activities of compound 7 and ISJ in vivo, histological analysis was performed on the hepatoma xenografts. Briefly, the samples were fixed in a 10% formalin solution, processed, embedded, sectioned and either H&E stained to reveal tumor tissue necrosis or IHC stained using antibodies against c-PARP, c-Cas3 or c-Cas9. The H&E and IHC images were obtained on a Leica DMI3000 B phase-contrast microscopy. The immunoreactive areas in the IHC images were quantified using ImagePro Plus 6.0 software (Media Cybernetics, Silver Spring, MD). The integrated optical density (IOD) values were represented as the mean ± SEM.

[13] = system: advanced HCC; design: method as in PMID 18650514; settings: patients with advanced HCC; cited from earlier work

Structure (SMILES)	Inhibitory Ratio (%) HepG2 [1] [%]	Inhibitory Ratio (%) QGY-7703 [2] [%]	other results
Cc1ccc(S(=O)(=O)Oc2cc3c(c4oc5c6c(ccc5c(=O)c24)OC(c2ccccc2)(c2ccccc2)O6)C=CC(C)(C)O3)cc1 [compound 10]	18.01	0.66	
CCOC(=O)[C@@H](O)[C@H](O)c1c(OC)cc(OC)c2c(=O)c3ccc(OC)c(OC)c3oc12 [compound 14]	25.40	13.15	
O=c1c2ccc3c(c2oc2cc(O)cc(O)c12)OC(c1ccccc1)(c1ccccc1)O3 [compound 7, 7,9-dihydroxy-2,2-diphenyl-6H-[1,3]dioxolane[4,5-c]xanthen-6h-one]	90.99	79.93	IC50 [1]: 7.34 ± 0.09 µM; IC50 [2]: 9.88 ± 0.18 µM; IC50 [3]: 6.35 ± 0.42 µM; IC50 [4]: 53.51 ± 0.13 µM; number of apoptotic cells compared to the control group ([5]; 5 μM): did not alter; percentage of apoptotic cells ([5]; 15 μM): increased significantly; decrease of HepG2 cell migration compared to control [6]: 76.4%; inhibition at 10 µM [7]: 69%; inhibition of PKC activity compared to the basal control ([8]; 5 μM): 40.9%; inhibition of PKC activity compared to the basal control ([8]; 10 μM): 54.1%; PKCζ expression in cytosol and cell membrane [9]: reduced; reduction of tumor weight compared to controls [10]: 49.4%; change in body weight compared to vehicle-treated controls [11]: no significant change; H&E staining of xenograft tumors [12]: significant tissue death; IHC c-PARP, c-Cas3 and c-Cas9 levels in tumors [12]: upregulated expression; immunoblot c-PARP, c-Cas3 and c-Cas9 levels in tumor tissue [12]: increased
CNC(=O)c1cc(Oc2ccc(NC(=O)Nc3ccc(Cl)c(C(F)(F)F)c3)cc2)ccn1 [sorafenib]			improvement of overall survival [13]: approximately three
COc1cc(OC)c2c(=O)c3ccc(OC)c(OC)c3oc2c1 [compound 5]	22.61	20.81	melting point: 138 to 140 °C
COc1ccc2c(=O)c3c(OC)cc(OC)c(I)c3oc2c1OC [compound 15]	24.07	−1.75	
COc1ccc2c(=O)c3c(OC)cc(OC)c(/C=C/C(C)(C)O)c3oc2c1OC [compound 16]	15.95	13.26	
C#CC(C)(C)Oc1cc(OS(=O)(=O)c2ccc(C)cc2)c2c(=O)c3ccc4c(c3oc2c1)OC(c1ccccc1)(c1ccccc1)O4 [compound 9]	12.46	−3.98	
COc1ccc2c(=O)c3c(OC)cc(OC)c(C=O)c3oc2c1OC [compound 12]	26.12	20.97	
O=c1[nH]cc(F)c(=O)[nH]1 [5-Fu, 5-Fluorouracil, reference compound]			IC50 [1]: 12.48 ± 0.11 µM; IC50 [2]: 15.66 ± 0.07 µM; IC50 [3]: 14.6 ± 0.36 µM; IC50 [4]: 0.6 ± 0.03 µM
CCOC(=O)/C=C/c1c(OC)cc(OC)c2c(=O)c3ccc(OC)c(OC)c3oc12 [compound 13]	47.29	16.17	
C#CC(C)(C)Oc1cc(O)c2c(=O)c3ccc4c(c3oc2c1)OC(c1ccccc1)(c1ccccc1)O4 [compound 8]	6.88	−9.85	
Cc1ccc(S(=O)(=O)Oc2cc3c(c4oc5c(O)c(O)ccc5c(=O)c24)C=CC(C)(C)O3)cc1 [compound 11]	45.36	21.44	
O=c1c2ccc(O)c(O)c2oc2cc(O)cc(O)c12 [compound 6]	13.80	−0.66	
